Data on 10 molecules can be found in patent publication US8481284B2, “Process of preparing conjugates of allium organosulfur compounds with amino acids, peptides, and proteins” (Wisconsin Alumni Research Foundation, priority 2009, dated 2013).

Molecules are shown by their SMILES. Where two headings read alike, the source gives them in different places.

For assay [1], the system named is quinone reductase (QR) activity in Hepa 1c1c7 cells. In words: QR (quinone reductase) induction in Hepa 1c1c7 cells. Particulars: for EC (2-fold QR induction) / QR induction at a single dose: Hepa 1c1c7 cells; for EC (2-fold QR induction): read-out: CD values (dose where there was a doubling of QR); for QR induction in the presence of increasing exogenous GSH: 31 μg/ml conjugate, increasing exogenous GSH in medium; for QR induction at a single dose: 31 μg/ml. It counts as cell-based. The procedure:
Specifically, the mixed disulfide conjugates as prepared similar to the pure conjugates of Example 10 or purified from mixtures prepared in Example 11 were used with the Hepa 1c1c7 cell line as disclosed in Prochaska, et al., 1992. Each conjugate was tested over a dose range and increases in quinone reductase (QR) activity was used as a biomarker for phase II enzyme induction, an established mechanism of cancer chemoprotection. […] Results were considered valid as long as cell viability in the assay was >50% as recommended by the established protocol. Typical experimental results are shown for the CySSPe conjugate (FIG. 11), and summary results are provided for all conjugates in terms of relative potency (CD values) for QR induction (Table 8).
(§1) Generally, redox modulation and thiol upregulation is considered a defense mechanism to pathological processes in cells. These mechanisms were analyzed in the mixed disulfide conjugates in both Hepa 1c1c7 and RAW 264.7 macrophage cell lines. Evidence of redox modulation was obtained in terms of 1) attenuation of QR inducing activity with increasing reducing capacity of cells through exogenous GSH addition, 2) increases in cellular glutathione (GSH) and 3) export/enrichment of thiols in the extracellular fluid.

For assay [2], the system named is nitric oxide (NO) in lipopolysaccharide-activated macrophages (RAW 264.7). In words: Inhibition of NO evolution in lipopolysaccharide-activated macrophages (RAW 264.7), Griess reagent. It counts as cell-based, murine. Particulars: Mus musculus, RAW264.7; for inhibition at 125 µg/mL: at 125 μg/ml, the highest level tested; for IC50: LPS 1 μg/ml, 24 hour incubation. How it is done:
Each conjugate was tested over a dose range and the evolution of NO over the 24 hour incubation period was measured as […] by the Griess reagent using established protocols ([…] et al., 1996). The dose where a 50% inhibition of NO evolution occurred (IC50) relative to the control cells without added conjugate was estimated by sigmoidal curve-fitting as a relative measure of anti-inflammatory activity, with lower IC50 values representing greater potency. […] Typical experimental results are shown for the GSSPe conjugate (FIG. 12), and summary results are provided for all conjugates in terms of relative potency (IC50 values) for NO inhibition (Table 9).
Background: Nitrite, measured by Griess reagent, commonly stands in for NO production.

In assay [3] the test system is intracellular GSH in Hepa 1c1c7 cells. Nature of the assay: Intracellular GSH content of Hepa 1c1c7 cells after conjugate addition. It counts as cell-based. Particulars: over the first 10 hours. The procedure: Another related consequence of adding the conjugates to the cells was an increase in cellular GSH. This response is considered to be a general antioxidant defense as well as one that provides specific protection to cancer (Kim et al., 2009) and was assessed in the next Example.
Specifically, GSSP was prepared similar to the GSSR conjugates in Example 11 and added to Hepa 1c1c7 cells. The changes in intracellular GSH content was measured after lysis of the cells at pre-determined intervals after addition of the GSSP conjugate.

The next assay relates to RAW 264.7 cells. In words: Thiol export (extracellular thiols, DTNB) by macrophages. The class given is cell-based, murine. Particulars: compared with other species or control cells. The procedure:
FIG. 15 depicts the extracellular thiol concentrations of RAW 264.7 cells treated with CySSR and 5,5′-dithio-bis(2-nitrobenzoic acid) (DTNB) as analyzed in Example 31.
as §1
Specifically, CySSR as prepared in Example 11 was added to macrophages. Thiol export by the macrophages was then analyzed. All CySSR species tested at 31 μg/ml induced thiol export by macrophages by as much as 20-35 times level observed for untreated control cells. Thiols were measured by Ellman's reagent (DTNB). […] Cellular exporting of thiols represents another mechanism by which cells respond to oxidative stress by exporting reducing equivalents to restore extracellular redox homeostasis.

Where [4] appears, read: molar equivalent of the μg/ml value.

The inhibition is the percentage by which the read-out fell short of the control. With `CCCSSC[C@H](NC(=O)CC[C@H](N)C(=O)O)C(=O)NCC(=O)O` [GSSP, S-propyl-L-mercaptoglutathione], the EC (2-fold QR induction) came to 73 µg/mL in assay [1] (cell viability >50%) and 190 µM in assay [1] (setting [4]). Moreover, the inhibition at 125 µg/mL in assay [2] amounted to 34%. Besides, the “elevation of intracellular GSH over control” value in assay [3] is recorded as 50-70%.

The IC50 is the point on the concentration scale where inhibition reaches its midpoint. Regarding `C=CCSSC[C@@H](N)C(=O)O` [CySSA, S-allyl-L-mercaptocysteine], the “QR induction in the presence of increasing exogenous GSH” value in assay [1] is “progressively attenuated”. The “QR induction at a single dose” value in assay [1] was “nearly a doubling of QR”. Further, the EC (2-fold QR induction) in assay [1] (cell viability >50%) came out at 26 µg/mL; in assay [1] (setting [4]), 130 µM. Moreover, the IC50 in assay [2] (cell viability ≧80%) is 9 µg/mL; in assay [2] (setting [4]), 47 µM.

For the molecule `CCSSC[C@H](NC(=O)CC[C@H](N)C(=O)O)C(=O)NCC(=O)O` [GSSE, S-ethyl-L-mercaptoglutathione], the values for the EC (2-fold QR induction) in assay [1] (cell viability >50%) and in assay [1] (setting [4]) were 72 µg/mL and 200 µM, respectively. Further, in assay [2], the inhibition at 125 µg/mL was found to be 25%.

With `CSSC[C@@H](N)C(=O)O` [CySSM, S-methyl-L-mercaptocysteine], the EC (2-fold QR induction) in assay [1] (cell viability >50%) stood at 89 µg/mL; in assay [1] (setting [4]) it was 530 µM. Further, the IC50 in assay [2] (cell viability ≧80%) was 48 µg/mL; in assay [2] (setting [4]), 290 µM.

As to `CCCSSC[C@@H](N)C(=O)O` [CySSP, S-propyl-L-mercaptocysteine], the values for the EC (2-fold QR induction) in assay [1] (cell viability >50%) and in assay [1] (setting [4]) were 92 µg/mL and 470 µM, respectively. Also, the IC50 was 63 µg/mL in assay [2] (cell viability ≧80%) and 320 µM in assay [2] (setting [4]).

Consider `C/C=C/SSC[C@@H](N)C(=O)O` [CySSPe, S-1-propenyl-L-mercaptocysteine], for which the EC (2-fold QR induction) in assay [1] (cell viability >50%) was determined as 4.8 µg/mL; in assay [1] (setting [4]), 25 µM. Also, the IC50 was 21 µg/mL in assay [2] (cell viability ≧80%) and 110 µM in assay [2] (setting [4]). In the assay with RAW 264.7 cells, the “thiol efflux / extracellular thiols, in words” value was “about half as much thiol efflux as the others”.

Regarding `C/C=C/SSC[C@H](NC(=O)CC[C@H](N)C(=O)O)C(=O)NCC(=O)O` [GSSPe, S-1-propenyl-L-mercaptoglutathione], the EC (2-fold QR induction) in assay [1] (cell viability >50%) was 5.3 µg/mL; in assay [1] (setting [4]), 14 µM. Moreover, the IC50 came to 4.6 µg/mL in assay [2] (cell viability ≧80%) and 16 µM in assay [2] (setting [4]).

For `CSSC[C@H](NC(=O)CC[C@H](N)C(=O)O)C(=O)NCC(=O)O` [GSSM, S-methlyl-L-mercaptoglutathione], the EC (2-fold QR induction) in assay [1] (cell viability >50%) turned out to be 87 µg/mL; in assay [1] (setting [4]), 250 µM. Also, in assay [2], the inhibition at 125 µg/mL came to 26%.

Turning to `C=CCSSC[C@H](NC(=O)CC[C@H](N)C(=O)O)C(=O)NCC(=O)O` [GSSA, S-2-propenyl-L-mercaptoglutathione], the “QR induction in the presence of increasing exogenous GSH” value in assay [1] is “progressively attenuated”. The “QR induction at a single dose” value in assay [1] was “nearly a doubling of QR”. Further, the figures for the EC (2-fold QR induction) in assay [1] (cell viability >50%) and in assay [1] (setting [4]) were 33 µg/mL and 87 µM, respectively. In addition, the IC50 in assay [2] (cell viability ≧80%) amounted to 87 µg/mL; in assay [2] (setting [4]) it was 230 µM.

With `CCSSC[C@@H](N)C(=O)O` [CySSE, S-ethyl-L-mercaptocysteine], the values for the EC (2-fold QR induction) in assay [1] (cell viability >50%) and in assay [1] (setting [4]) were 76 µg/mL and 420 µM, respectively. Moreover, the half-maximal inhibitory concentration (IC50) in assay [2] (cell viability ≧80%) is 102 µg/mL; in assay [2] (setting [4]) it was 560 µM.
